Data reported in the NIST ThermoML archive (doi:10.1021/je300652k).

Conditions: Liquid, Pulse-echo method

FC(F)(F)C1(F)OC1(F)F (configuration not stated) [2,2,3-trifluoro-3-(trifluoromethyl)oxirane]
Conditions	speed of sound [m/s]
253.15 K, 2510 kPa	571.2
253.15 K, 10040 kPa	623.9
253.15 K, 25020 kPa	708
253.15 K, 50030 kPa	816.7
253.15 K, 75010 kPa	903.6
253.15 K, 100040 kPa	977.8
253.15 K, 125040 kPa	1043.1
253.15 K, 150010 kPa	1101.9
253.15 K, 175030 kPa	1155.8
253.15 K, 200030 kPa	1205.6
253.15 K, 250060 kPa	1295.5
253.15 K, 300100 kPa	1376.5
253.15 K, 350000 kPa	1449.2
253.15 K, 400120 kPa	1516.7
283.15 K, 2500 kPa	449.4
283.15 K, 9990 kPa	517.5
283.15 K, 25000 kPa	617.4
283.15 K, 49990 kPa	737.8
283.15 K, 74990 kPa	831.4
283.15 K, 100050 kPa	910
283.15 K, 125050 kPa	978.4
283.15 K, 150010 kPa	1039.3
283.15 K, 175090 kPa	1095.2
283.15 K, 200080 kPa	1146.8
283.15 K, 250010 kPa	1239.4
283.15 K, 300020 kPa	1321.5
283.15 K, 350020 kPa	1396.5
283.15 K, 400120 kPa	1465.2
313.15 K, 2500 kPa	326.6
313.15 K, 10010 kPa	420.6
313.15 K, 25030 kPa	538.8
313.15 K, 50010 kPa	670.9
313.15 K, 75040 kPa	769.9
313.15 K, 100050 kPa	852
313.15 K, 125040 kPa	922.8
313.15 K, 150070 kPa	986.2
313.15 K, 175020 kPa	1043.4
313.15 K, 200020 kPa	1095.8
313.15 K, 250020 kPa	1190.7
313.15 K, 300010 kPa	1274.7
313.15 K, 350030 kPa	1350.5
313.15 K, 400060 kPa	1420.2
343.15 K, 10040 kPa	332.6
343.15 K, 25050 kPa	471.3
343.15 K, 50030 kPa	614.1
343.15 K, 75030 kPa	718
343.15 K, 100050 kPa	803
343.15 K, 125030 kPa	875.8
343.15 K, 150030 kPa	940.5
343.15 K, 175010 kPa	999.1
343.15 K, 200060 kPa	1052.9
343.15 K, 250050 kPa	1149.1
343.15 K, 299960 kPa	1234.4
343.15 K, 350090 kPa	1311.5
343.15 K, 400040 kPa	1382.2
373.15 K, 10010 kPa	255
373.15 K, 24970 kPa	413.4
373.15 K, 50060 kPa	565.5
373.15 K, 75000 kPa	673
373.15 K, 100040 kPa	760
373.15 K, 125040 kPa	834.6
373.15 K, 150040 kPa	900.3
373.15 K, 175000 kPa	959.8
373.15 K, 200070 kPa	1014.2
373.15 K, 249990 kPa	1111.6
373.15 K, 300030 kPa	1198
373.15 K, 350040 kPa	1275.4
373.15 K, 400010 kPa	1346.4
403.15 K, 20010 kPa	322.5
403.15 K, 25020 kPa	367.5
403.15 K, 50020 kPa	525.9
403.15 K, 75050 kPa	636.7
403.15 K, 100040 kPa	725.7
403.15 K, 125010 kPa	801.5
403.15 K, 150040 kPa	868.4
403.15 K, 175040 kPa	928.7
403.15 K, 200050 kPa	983.8
403.15 K, 250040 kPa	1082.6
403.15 K, 299980 kPa	1169.6
403.15 K, 350040 kPa	1247.9
403.15 K, 399990 kPa	1319.9

FC(F)=C(F)C(F)(F)F [hexafluoropropene]
Conditions	speed of sound [m/s]
253.27 K, 1150 kPa	575.6
253.27 K, 10940 kPa	645.3
253.27 K, 25910 kPa	728.8
253.27 K, 52820 kPa	844.3
253.27 K, 75030 kPa	921.1
253.27 K, 100630 kPa	997.3
253.27 K, 125810 kPa	1063
253.27 K, 151420 kPa	1123.6
253.27 K, 174830 kPa	1174.3
253.27 K, 200450 kPa	1224.7
253.27 K, 250580 kPa	1315.5
253.27 K, 299650 kPa	1393.8
253.27 K, 350190 kPa	1468.5
253.27 K, 400740 kPa	1535.4
273.17 K, 1130 kPa	488.3
273.17 K, 10400 kPa	567.9
273.17 K, 25040 kPa	660.8
273.17 K, 50150 kPa	779.5
273.17 K, 75280 kPa	871.7
273.17 K, 100230 kPa	949
273.17 K, 125430 kPa	1017.1
273.17 K, 150270 kPa	1077.5
273.17 K, 175810 kPa	1133.8
273.17 K, 200700 kPa	1184.6
273.17 K, 250800 kPa	1276.7
273.17 K, 300450 kPa	1358.2
273.17 K, 350820 kPa	1432.3
273.17 K, 400090 kPa	1499.6
288.15 K, 1160 kPa	424.2
288.15 K, 5200 kPa	468.9
288.15 K, 10130 kPa	513.8
288.15 K, 25190 kPa	618
288.15 K, 50080 kPa	741.2
288.15 K, 75440 kPa	837.6
288.15 K, 100170 kPa	916.1
288.15 K, 125510 kPa	986.4
288.15 K, 150630 kPa	1048.4
288.15 K, 175250 kPa	1103.9
288.15 K, 200700 kPa	1156.6
288.15 K, 250380 kPa	1249
288.15 K, 300040 kPa	1331.1
288.15 K, 350970 kPa	1407.7
288.15 K, 400410 kPa	1475.2
303.15 K, 1990 kPa	370.7
303.15 K, 10090 kPa	463.9
303.15 K, 25160 kPa	576.7
303.15 K, 50920 kPa	709.3
303.15 K, 75370 kPa	804.5
303.15 K, 100560 kPa	886.5
303.15 K, 125410 kPa	956.2
303.15 K, 150900 kPa	1020.1
303.15 K, 175340 kPa	1075.6
303.15 K, 200830 kPa	1129
303.15 K, 250190 kPa	1221.9
303.15 K, 300750 kPa	1306.5
303.15 K, 350300 kPa	1381.1
303.15 K, 400020 kPa	1450.2
323.18 K, 2300 kPa	288.3
323.18 K, 10550 kPa	404.9
323.18 K, 28790 kPa	547
323.18 K, 50380 kPa	664.6
323.18 K, 75340 kPa	767.2
323.18 K, 101090 kPa	852.8
323.18 K, 125070 kPa	921.8
323.18 K, 150670 kPa	987.4
323.18 K, 175680 kPa	1045.2
323.18 K, 200750 kPa	1098.6
323.18 K, 250620 kPa	1193.8
323.18 K, 300400 kPa	1278
323.18 K, 350810 kPa	1355.4
323.18 K, 400580 kPa	1424.9
343.19 K, 4760 kPa	245.5
343.19 K, 8270 kPa	311.3
343.19 K, 10440 kPa	341.8
343.19 K, 50540 kPa	627.2
343.19 K, 75610 kPa	730.9
343.19 K, 100650 kPa	818.3
343.19 K, 125170 kPa	890.4
343.19 K, 150340 kPa	956.2
343.19 K, 175160 kPa	1014.7
343.19 K, 200290 kPa	1069
343.19 K, 250220 kPa	1165.9
343.19 K, 300620 kPa	1252
343.19 K, 350100 kPa	1327.9
343.19 K, 400370 kPa	1399.8
363.15 K, 10450 kPa	287
363.15 K, 25500 kPa	442
363.15 K, 50520 kPa	592.9
363.15 K, 75490 kPa	700.6
363.15 K, 100300 kPa	787.2
363.15 K, 125230 kPa	861.9
363.15 K, 150340 kPa	928.6
363.15 K, 175590 kPa	988.8
363.15 K, 200320 kPa	1042.8
363.15 K, 250610 kPa	1141.2
363.15 K, 300360 kPa	1226.7
363.15 K, 350690 kPa	1305.3
363.15 K, 400260 kPa	1376
383.16 K, 15690 kPa	310.6
383.16 K, 25690 kPa	407.4
383.16 K, 50530 kPa	562.3
383.16 K, 75940 kPa	673.9
383.16 K, 100500 kPa	761.1
383.16 K, 125630 kPa	837.2
383.16 K, 150460 kPa	903.4
383.16 K, 175770 kPa	964.4
383.16 K, 200740 kPa	1019.4
383.16 K, 250260 kPa	1116.8
383.16 K, 300690 kPa	1204.6
383.16 K, 350280 kPa	1282.6
383.16 K, 400510 kPa	1354.3
403.14 K, 16670 kPa	288.3
403.14 K, 25610 kPa	375.7
403.14 K, 50890 kPa	537.5
403.14 K, 75640 kPa	647.4
403.14 K, 100060 kPa	737.1
403.14 K, 125630 kPa	813.6
403.14 K, 150360 kPa	880.3
403.14 K, 175620 kPa	941.6
403.14 K, 200670 kPa	997.2
403.14 K, 250500 kPa	1096
403.14 K, 300660 kPa	1183.8
403.14 K, 350610 kPa	1262.3
403.14 K, 400280 kPa	1333.6
423.15 K, 19600 kPa	293.5
423.15 K, 25100 kPa	345.1
423.15 K, 50800 kPa	513
423.15 K, 75400 kPa	623.9
423.15 K, 100710 kPa	715.4
423.15 K, 125320 kPa	791.3
423.15 K, 150160 kPa	858.8
423.15 K, 175410 kPa	920.3
423.15 K, 200520 kPa	976.3
423.15 K, 250420 kPa	1075.9
423.15 K, 300390 kPa	1163.6
423.15 K, 350600 kPa	1243
423.15 K, 400920 kPa	1315.6
448.15 K, 25130 kPa	318.1
448.15 K, 50710 kPa	485
448.15 K, 75240 kPa	596.6
448.15 K, 100750 kPa	689.4
448.15 K, 125710 kPa	766.5
448.15 K, 150770 kPa	834.5
448.15 K, 175320 kPa	894.5
448.15 K, 200820 kPa	951.6
448.15 K, 250910 kPa	1051.8
448.15 K, 300780 kPa	1139.3
448.15 K, 350710 kPa	1218.3
448.15 K, 400820 kPa	1291.1
473.14 K, 25160 kPa	298.7
473.14 K, 50460 kPa	462.3
473.14 K, 75570 kPa	576.7
473.14 K, 100220 kPa	666.6
473.14 K, 125570 kPa	745.3
473.14 K, 150690 kPa	814
473.14 K, 175720 kPa	875.3
473.14 K, 200800 kPa	931.7
473.14 K, 250600 kPa	1031.5
473.14 K, 300640 kPa	1119.7
473.14 K, 350560 kPa	1199
473.14 K, 400750 kPa	1272
